Experimental data: PubChem BioAssay AID192 (DTP/NCI, 2004)
“And” between values parts separate entries of the source, which are not always exact repeats. Identical values can stand only once. Toxic doses and inconclusive results are not listed.

Tested on: BDF1 mice, B16 melanoma ip, median survival T/C
Experiment: NCI In Vivo Anticancer Drug Screen. Data for tumor model B16 Melanoma (intraperitoneal) in B6D2F1 (BDF1) mice
Details: endpoint: median survival time, higher = longer survival
Summary of the method: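 Mice with transplantable tumors; drug vs vehicle groups; endpoint survival or tumor size; value = T/C.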

[1] = dose: 12.5 mg/kg/injection, schedule: Q01DX009 (ip), vehicle: Klucel (hydroxypropylcellulose) (HPC)
[2] = dose: 25.0 mg/kg/injection, schedule: Q01DX009 (ip), vehicle: Klucel (hydroxypropylcellulose) (HPC)
[3] = dose: 50.0 mg/kg/injection, schedule: Q01DX009 (ip), vehicle: Klucel (hydroxypropylcellulose) (HPC)
[4] = dose: 50.0 mg/kg/injection, schedule: Q01DX009 (ip), vehicle: saline
[5] = dose: 100.0 mg/kg/injection, schedule: Q01DX009 (ip), vehicle: saline
[6] = dose: 100.0 mg/kg/injection, schedule: Q01DX009 (ip), vehicle: Klucel (hydroxypropylcellulose) (HPC)
[7] = dose: 200.0 mg/kg/injection, schedule: Q01DX009 (ip), vehicle: Klucel (hydroxypropylcellulose) (HPC)
[8] = dose: 25.0 mg/kg/injection, schedule: Q01DX009 (ip), vehicle: saline with Tween-80
[9] = dose: 50.0 mg/kg/injection, schedule: Q01DX009 (ip), vehicle: saline with Tween-80
[10] = dose: 100.0 mg/kg/injection, schedule: Q01DX009 (ip), vehicle: saline with Tween-80
[11] = dose: 12.5 mg/kg/injection, schedule: Q01DX009 (ip), vehicle: saline
[12] = dose: 25.0 mg/kg/injection, schedule: Q01DX009 (ip), vehicle: saline
[13] = dose: 1.56 mg/kg/injection, schedule: Q01DX009 (ip), vehicle: saline
[14] = dose: 3.12 mg/kg/injection, schedule: Q01DX009 (ip), vehicle: saline
[15] = dose: 6.25 mg/kg/injection, schedule: Q01DX009 (ip), vehicle: saline
[16] = dose: 3.13 mg/kg/injection, schedule: Q01DX009 (ip), vehicle: saline with Tween-80
[17] = dose: 6.25 mg/kg/injection, schedule: Q01DX009 (ip), vehicle: saline with Tween-80
[18] = dose: 12.5 mg/kg/injection, schedule: Q01DX009 (ip), vehicle: saline with Tween-80

## COC12[C@@H]3N[C@@H]3CN1C1=C(C(=O)C(NCCSSCCNC3=C(C)C(=O)C4=C(C3=O)C(COC(N)=O)[C@]3(OC)C5N[C@@H]5CN43)=C(C)C1=O)[C@@H]2COC(N)=O (stereo partly specified)
dose: 0.2 mg/kg/injection, schedule: Q04DX003 (ip), vehicle: other
  T/C: 168 % of control
dose: 0.4 mg/kg/injection, schedule: Q04DX003 (ip), vehicle: other
  T/C: 241 % of control
dose: 0.8 mg/kg/injection, schedule: Q04DX003 (ip), vehicle: other
  T/C: 295 % of control
dose: 1.5 mg/kg/injection, schedule: Q04DX003 (ip), vehicle: saline with Tween-80
  T/C: 184 % of control
dose: 1.6 mg/kg/injection, schedule: Q04DX003 (ip), vehicle: other
  T/C: 295 % of control
dose: 3.0 mg/kg/injection, schedule: Q04DX003 (ip), vehicle: saline with Tween-80
  T/C: 197 % of control
dose: 3.2 mg/kg/injection, schedule: Q04DX003 (ip), vehicle: other
  T/C: 295 % of control
dose: 6.0 mg/kg/injection, schedule: Q04DX003 (ip), vehicle: saline with Tween-80
  T/C: 288 % of control
dose: 6.4 mg/kg/injection, schedule: Q04DX003 (ip), vehicle: other
  T/C: 295 % of control
dose: 12.0 mg/kg/injection, schedule: Q04DX003 (ip), vehicle: saline with Tween-80
  T/C: 288 % of control

## O=S1(=O)OCc2ccccc21
[1]
  T/C: 115 % of control
[2]
  T/C: 108 % of control
[3]
  T/C: 118 % of control

## CC(=O)/C(N=O)=C(/C)O
[4]
  T/C: 110 % of control
[5]
  T/C: 105 % of control
dose: 200.0 mg/kg/injection, schedule: Q01DX009 (ip), vehicle: saline
  T/C: 97 % of control

## CCCCCCC/C=C/C(=O)OC1C(OC2C(OC(CCCCCCC)CC(=O)OC(CCCCCCC)CC(=O)O)OC(C)C(O)C2O)OC(C)C(O)C1O (stereo unspecified)
[1]
  T/C: 90 % of control
[2]
  T/C: 104 % of control
[3]
  T/C: 92 % of control

## Cc1ccc(C)n1-c1ccccc1C(=O)O
[6]
  T/C: 106 % of control
[7]
  T/C: 96 % of control
dose: 400.0 mg/kg/injection, schedule: Q01DX009 (ip), vehicle: Klucel (hydroxypropylcellulose) (HPC)
  T/C: 90 % of control

## O=C1NC(=O)c2cccc3cccc1c23
dose: 100.0 mg/kg/injection, schedule: Q04DX003 (ip), vehicle: saline with Tween-80
  T/C: 94 % of control

## Cc1ccc(NC(=O)c2ccc(Cl)cc2Cl)cc1Cl
dose: 100.0 mg/kg/injection, schedule: Q04DX003 (ip), vehicle: Klucel (hydroxypropylcellulose) (HPC)
  T/C: 102 % of control
dose: 200.0 mg/kg/injection, schedule: Q04DX003 (ip), vehicle: Klucel (hydroxypropylcellulose) (HPC)
  T/C: 92 % of control
dose: 400.0 mg/kg/injection, schedule: Q04DX003 (ip), vehicle: Klucel (hydroxypropylcellulose) (HPC)
  T/C: 95 % of control

## Cc1cc2ncn(CC(=O)O)c2cc1C
[8]
  T/C: 95 % of control
[9]
  T/C: 97 % of control
[10]
  T/C: 97 % of control

## CC(Br)C(=O)NCC(=O)O (stereo unspecified)
[11]
  T/C: 101 % of control
[12]
  T/C: 90 % of control
[9]
  T/C: 95 % of control
[4]
  T/C: 101 % of control

## CCCCOCCN1CCN(CCCN2c3ccccc3Sc3ccc(C(F)(F)F)cc32)CC1
dose: 0.29 mg/kg/injection, schedule: Q04DX003 (ip), vehicle: saline
  T/C: 89 % of control
dose: 0.58 mg/kg/injection, schedule: Q04DX003 (ip), vehicle: saline
  T/C: 102 % of control
dose: 0.78 mg/kg/injection, schedule: Q01DX009 (ip), vehicle: saline
  T/C: 112 % of control
dose: 1.17 mg/kg/injection, schedule: Q04DX003 (ip), vehicle: saline
  T/C: 107 % of control
[13]
  T/C: 115 % of control
dose: 2.34 mg/kg/injection, schedule: Q04DX003 (ip), vehicle: saline
  T/C: 89 % of control
[14]
  T/C: 107 % of control

## CNC(=O)OCc1c(COC(=O)NC)c(C)n(-c2ccc(OC)cc2)c1C
dose: 3.12 mg/kg/injection, schedule: Q01DX009 (ip), vehicle: Klucel (hydroxypropylcellulose) (HPC)
  T/C: 113 % of control
dose: 6.25 mg/kg/injection, schedule: Q01DX009 (ip), vehicle: Klucel (hydroxypropylcellulose) (HPC)
  T/C: 111 % of control

## O=P(N1CCOCC1)(N1CC1)N1CC1
[15]
  T/C: 115 % of control
[11]
  T/C: 118 % of control

## COc1ccc(N=NN(C(C)=O)c2ccccc2)cc1
[6]
  T/C: 102 % of control
[7]
  T/C: 102 % of control

## CCCCNC(C)(C)C(SSSC(c1ccc(Cl)cc1)C(C)(C)NCCCC)c1ccc(Cl)cc1 (stereo unspecified)
[1]
  T/C: 97 % of control
[2]
  T/C: 89 % of control

## CN(C)CC(C(=O)Cc1ccccc1)c1ccccc1 (stereo unspecified)
[12]
  T/C: 93 % of control
[4]
  T/C: 88 % of control
[5]
  T/C: 97 % of control

## C[NH-].C[NH-].O=C(O)CC(=O)O.[Pt+2]
dose: 50.0 mg/kg/injection, schedule: Q04DX003 (ip), vehicle: saline
  T/C: 108 % of control
dose: 100.0 mg/kg/injection, schedule: Q04DX003 (ip), vehicle: saline
  T/C: 162 % of control
dose: 200.0 mg/kg/injection, schedule: Q04DX003 (ip), vehicle: saline
  T/C: 165 % of control

## C/C(=N/O)[c-]1[c-][c-][c-][c-]1.[Fe].[c-]1[c-][c-][cH-][c-]1
[16]
  T/C: 91 % of control
dose: 3.13 mg/kg/injection, schedule: Q04DX003 (ip), vehicle: saline with Tween-80
  T/C: 98 % of control
[17]
  T/C: 100 % of control
dose: 6.25 mg/kg/injection, schedule: Q04DX003 (ip), vehicle: saline with Tween-80
  T/C: 96 % of control
[18]
  T/C: 97 % of control
dose: 12.5 mg/kg/injection, schedule: Q04DX003 (ip), vehicle: saline with Tween-80
  T/C: 94 % of control

## c1ccc(CCN2CCCCC2)nc1
[13]
  T/C: 109 % of control
dose: 3.13 mg/kg/injection, schedule: Q01DX009 (ip), vehicle: saline
  T/C: 106 % of control
[15]
  T/C: 100 % of control

## Clc1ccc2c(c1)C(=P(c1ccccc1)(c1ccccc1)c1ccccc1)c1cc(Cl)cc(Cl)c1-2
[10]
  T/C: 91 % of control
dose: 200.0 mg/kg/injection, schedule: Q01DX009 (ip), vehicle: saline with Tween-80
  T/C: 89 % of control

## CC(=N\O)/C(C)=N/O.CC(=N\O)/C(C)=N/O.CC(=N\O)/C(C)=N/O.CC(=N\O)/C(C)=N/O.[Cu].[Cu]
dose: 0.78 mg/kg/injection, schedule: Q01DX009 (ip), vehicle: Klucel (hydroxypropylcellulose) (HPC)
  T/C: 93 % of control
dose: 1.56 mg/kg/injection, schedule: Q01DX009 (ip), vehicle: Klucel (hydroxypropylcellulose) (HPC)
  T/C: 103 % of control
dose: 3.13 mg/kg/injection, schedule: Q01DX009 (ip), vehicle: Klucel (hydroxypropylcellulose) (HPC)
  T/C: 103 % of control

## CCN(CC)CCCC(C)Nc1cc(/C=C/c2ccc(Cl)cc2)nc2cc(N(C)C)ccc12 (stereo unspecified)
[1]
  T/C: 97 % of control

## C=C1CCN(c2ccc(OCC)cc2)C1=O
dose: 4.0 mg/kg/injection, schedule: Q01DX009 (ip), vehicle: saline + alcohol
  T/C: 93 % of control
dose: 8.0 mg/kg/injection, schedule: Q01DX009 (ip), vehicle: saline + alcohol
  T/C: 95 % of control
dose: 16.0 mg/kg/injection, schedule: Q01DX009 (ip), vehicle: saline + alcohol
  T/C: 107 % of control
dose: 32.0 mg/kg/injection, schedule: Q01DX009 (ip), vehicle: saline + alcohol
  T/C: 115 % of control
dose: 64.0 mg/kg/injection, schedule: Q01DX009 (ip), vehicle: saline + alcohol
  T/C: 93 % of control

## OCCNCCN1CCN(CCCN2c3ccccc3Sc3ccc(C(F)(F)F)cc32)CC1
[14]
  T/C: 108 % of control
[15]
  T/C: 102 % of control
[11]
  T/C: 100 % of control
[12]
  T/C: 92 % of control

## Cc1cc(C)c(NC(=O)N(CCCl)N=O)cc1C
dose: 23.0 mg/kg/injection, schedule: Q01DX009 (ip), vehicle: saline
  T/C: 197 % of control
dose: 45.0 mg/kg/injection, schedule: Q01DX009 (ip), vehicle: saline
  T/C: 229 % of control

## C#CCN(C)Cc1ccccc1
[11]
  T/C: 97 % of control
[12]
  T/C: 97 % of control
[4]
  T/C: 100 % of control

## COC(=O)c1cc2cc3c(c(O)c2c(=O)o1)OC1(Cc2c(O)c4c(c(O)c2O1)C(=O)C(OC)CC4=O)CC3O (stereo unspecified)
[16]
  T/C: 91 % of control
[17]
  T/C: 91 % of control and 93 % of control
[18]
  T/C: 86 % of control
[8]
  T/C: 86 % of control and 88 % of control

## O=NNc1cnccn1
dose: 25.0 mg/kg/injection, schedule: Q01DX009 (ip), vehicle: water
  T/C: 164 % of control

## O=NNc1ccccn1
[14]
  T/C: 116 % of control
[15]
  T/C: 119 % of control
[11]
  T/C: 156 % of control and 165 % of control
